From patent publication US10821115B2, “Compounds that inhibit Mcl-1 protein” (priority 2017, dated 2020)
Like-named read-outs stand apart in the source and are kept apart here.

Legend:
[1] = target: recombinant human Mcl-1 (residues 171-327) / Bim interaction (Homo sapiens (Human), UniProt Q07820); test: biochemical; type: binding; details: read-out: Mcl-1 HTRF IC50
[2] = system: human multiple myeloma cell line, OPM-2; test: Cell viability assay (OPM-2 10 FBS), CellTiter-Glo; type: cell-based
Outline: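 OPM-2 cells at 3000 cells/well in RPMI 1640 with 10% FBS were exposed to serially diluted compounds for 16 h at 37 °C, 5% CO2.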

[3] = TR-FRET, Mcl-1(171-327) / biotin-Bim (51-76)
[4] = Homo sapiens, OPM-2, 16 h, read-out: OPM-2 10% FBS IC50 IP, OPM-2 cells, 10% FBS, 16 h, CellTiter-Glo
[5] = 0.1 nM Mcl-1(171-327), 0.05 nM biotin-Bim (51-76)
[6] = read-out: OPM-2 10% FBS IC50 IP, OPM-2 cells, 10% FBS, 16 h incubation
[7] = read-out: OPM-2 10% FBS IC50 IP, OPM-2 cells, 10% FBS, 16 h, CellTiter-Glo
[8] = Homo sapiens, OPM-2, 16 h, read-out: OPM-2 10% FBS IC50 IP, OPM-2 cells, 10% FBS, 16 h incubation

Sequence of recombinant human Mcl-1 (residues 171-327) / Bim interaction (Q07820 171-327): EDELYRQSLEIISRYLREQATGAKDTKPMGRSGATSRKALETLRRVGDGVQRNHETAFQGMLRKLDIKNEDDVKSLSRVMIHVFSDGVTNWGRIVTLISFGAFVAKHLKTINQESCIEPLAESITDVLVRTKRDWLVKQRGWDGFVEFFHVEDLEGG

Compound	IC50 [1, 3] [nM]	IC50 [2, 4] [nM]	IC50 [1, 5] [nM]	further results
C[C@@H]1[C@@H](C)CCC[C@@](O)(CC(=O)N2CCOCC2)[C@@H]2CC[C@H]2CN2C[C@@]3(CCCc4cc(Cl)ccc43)COc3ccc(cc32)C(=O)NS1(=O)=O [Example 100086, (1S,3′R,6′R,7′R,11′S,12′R)-6-chloro-7′-hydroxy-11′,12′-dimethyl-7′-(2-(4-morpholinyl)-2-oxoethyl)-3,4-dihydro-2H,15′H-spiro[naphthalene-1,22′-[20]oxa[13]thia[1,14]diazatetracyclo [14.7.2.0~3,6~.0~19,24~]pentacosa[16,18,24]trien]-15′-one 13′,13′-dioxide]	0.537	390	–	–
CO[C@@]1(CN2CCN3CCN(C(=O)CCS(=O)(=O)c4ccccc4)C[C@@H]3C2)/C=C/C[C@H](C)[C@@H](C)S(=O)(=O)NC(=O)c2ccc3c(c2)N(C[C@@H]2CC[C@H]21)C[C@@]1(CCCc2cc(Cl)ccc21)CO3 (single isomer, unassigned) [Example 294]	–	–	0.66	IC50 [2, 6]: 687 nM
CO[C@@]1(CN2CCN3CCC(F)(F)C[C@@H]3C2)/C=C/C[C@H](C)[C@@H](C)S(=O)(=O)NC(=O)c2ccc3c(c2)N(C[C@@H]2CC[C@H]21)C[C@@]1(CCCc2cc(Cl)ccc21)CO3 (single isomer, unassigned) [Example 288]	–	–	0.484	IC50 [2, 6]: 652 nM
CO[C@@]1(CC(=O)N(C)CCN2CCOCC2)/C=C/C[C@H](C)[C@@H](C)S(=O)(=O)NC(=O)c2ccc3c(c2)N(C[C@@H]2CC[C@H]21)C[C@@]1(CCCc2cc(Cl)ccc21)CO3 [Example 100377, 2-((1S,3′R,6′R,7′S,8′E,11′S,12′R)-6-chloro-7′-methoxy-11′,12′-dimethyl-13′,13′-dioxido-15′-oxo-3,4-dihydro-2H-spiro[naphthalene-1,22′-[20]oxa[13]thia[1,14]diazatetracyclo [14.7.2.0~3,6~.0~19,24~]pentacosa[8,16,18,24]tetraen]-7′-yl)-N-methyl-N-(2-(4-morpholinyl)ethyl)acetamide]	0.107	182	–	–
CCC[C@]1(OC)/C=C/C[C@H](C)[C@@H](C)S(=O)(=O)NC(=O)c2ccc3c(c2)N(C[C@@H]2CC[C@H]21)C[C@@]1(CCCc2cc(Cl)ccc21)CO3 [Example 100236, (1S,3′R,6′R,7′S,8′E,11′S,12′R)-6-chloro-7′-methoxy-11′,12′-dimethyl-7′-propyl-3,4-dihydro-2H,15′H-spiro[naphthalene-1,22′-[20]oxa[13]thia[1,14]diazatetracyclo [14.7.2.0~3,6~.0~19,24~]pentacosa[8,16,18,24]tetraen]-15′-one 13′,13′-dioxide]	1.1	933	–	–
COCCOC[C@]1(O)/C=C/C[C@H](C)[C@@H](C)S(=O)(=O)NC(=O)c2ccc3c(c2)N(C[C@@H]2CC[C@H]21)C[C@@]1(CCCc2cc(Cl)ccc21)CO3 [Example 100444, (1S,3′R,6′R,7′S,8′E,11′S,12′R)-6-chloro-7′-hydroxy-7′-((2-methoxyethoxy)methyl)-11′,12′-dimethyl-3,4-dihydro-2H,15′H-spiro[naphthalene-1,22′-[20]oxa[13]thia[1,14]diazatetracyclo [14.7.2.0~3,6~.0~19,24~]pentacosa[8,16,18,24]tetraen]-15′-one 13′,13′-dioxide]	0.098	646	–	–
CO[C@@]1(CS(=O)(=O)C(C)C)/C=C/C[C@H](C)[C@@H](C)S(=O)(=O)NC(=O)c2ccc3c(c2)N(C[C@@H]2CC[C@H]21)C[C@@]1(CCCc2cc(Cl)ccc21)CO3 [Example 100316, (1S,3′R,6′R,7′S,8′E,11′S,12′R)-6-chloro-7′-methoxy-11′,12′-dimethyl-7′-((2-propanylsulfonyl)methyl)-3,4-dihydro-2H,15′H-spiro[naphthalene-1,22′-[20]oxa[13]thia[1,14]diazatetracyclo [14.7.2.0~3,6~.0~19,24~]pentacosa[8,16,18,24]tetraen]-15′-one 13′,13′-dioxide]	0.276	–	–	IC50 [2, 7]: 375 nM
CO[C@@]1(CN2CCN(Cc3nc(C)c(C)o3)CC2)/C=C/C[C@H](C)[C@@H](C)S(=O)(=O)NC(=O)c2ccc3c(c2)N(C[C@@H]2CC[C@H]21)C[C@@]1(CCCc2cc(Cl)ccc21)CO3 [Example 322, (1S,3′R,6′R,7′S,8′E,11′S,12′R)-6-chloro-7′-((4-((4,5-dimethyl-1,3-oxazol-2-yl)methyl)-1-piperazinyl)methyl)-7′-methoxy-11′,12′-dimethyl-3,4-dihydro-2H,15′H-spiro[naphthalene-1,22′-[20]oxa[13]thia[1,14]diazatetracyclo [14.7.2.0~3,6~.0~19,24~]pentacosa[8,16,18,24]tetraen]-15′-one 13′,13′-dioxide]	–	–	0.145	IC50 [2, 8]: 87 nM
C[C@@H]1[C@@H](C)CCC[C@@](O)(CCN2CC(F)(F)C2)[C@@H]2CC[C@H]2CN2C[C@@]3(CCCc4cc(Cl)ccc43)COc3ccc(cc32)C(=O)NS1(=O)=O [Example 100093, (1S,3′R,6′R,7′R,11′S,12′R)-6-chloro-7′-(2-(3,3-difluoro-1-azetidinyl)ethyl)-7′-hydroxy-11′,12′-dimethyl-3,4-dihydro-2H,15′H-spiro[naphthalene-1,22′-[20]oxa[13]thia[1,14]diazatetracyclo [14.7.2.0~3,6~.0~19,24~]pentacosa[16,18,24]trien]-15′-one 13′,13′-dioxide]	0.291	–	–	IC50 [2, 7]: 554 nM
C[C@@H]1[C@@H](C)C/C=C/[C@](O)(c2cccnc2)[C@@H]2CC[C@H]2CN2C[C@@]3(CCCc4cc(Cl)ccc43)COc3ccc(cc32)C(=O)NS1(=O)=O (single isomer, unassigned) [Example 100183]	1.34	2240	–	–
C[C@@H]1[C@@H](C)C/C=C/[C@@](O)(CC(=O)N2CCCC2)[C@@H]2CC[C@H]2CN2C[C@@]3(CCCc4cc(Cl)ccc43)COc3ccc(cc32)C(=O)NS1(=O)=O [Example 100253, (1S,3′R,6′R,7′S,8′E,11′S,12′R)-6-chloro-7′-hydroxy-11′,12′-dimethyl-7′-(2-oxo-2-(1-pyrrolidinyl)ethyl)-3,4-dihydro-2H,15′H-spiro[naphthalene-1,22′-[20]oxa[13]thia[1,14]diazatetracyclo [14.7.2.0~3,6~.0~19,24~]pentacosa[8,16,18,24]tetraen]-15′-one 13′,13′-dioxide]	0.149	–	–	IC50 [2, 7]: 544 nM
C[C@@H]1[C@@H](C)C/C=C/[C@](O)(C#CCC2CCOCC2)[C@@H]2CC[C@H]2CN2C[C@@]3(CCCc4cc(Cl)ccc43)COc3ccc(cc32)C(=O)NS1(=O)=O [Example 100433, (1S,3′R,6′R,7′R,8′E,11′S,12′R)-6-chloro-7′-hydroxy-11′,12′-dimethyl-7′-(3-(tetrahydro-2H-pyran-4-yl)-1-propyn-1-yl)-3,4-dihydro-2H,15′H-spiro[naphthalene-1,22′-[20]oxa[13]thia[1,14]diazatetracyclo [14.7.2.0~3,6~.0~19,24~]pentacosa[8,16,18,24]tetraen]-15′-one 13′,13′-dioxide]	0.026	296	–	–
CO[C@@]1(CN2CC(N3CCS(=O)(=O)CC3)C2)/C=C/C[C@H](C)[C@@H](C)S(=O)(=O)NC(=O)c2ccc3c(c2)N(C[C@@H]2CC[C@H]21)C[C@@]1(CCCc2cc(Cl)ccc21)CO3 [Example 279, (1S,3′R,6′R,7′S,8′E,11′S,12′R)-6-chloro-7′-((3-(1,1-dioxido-4-thiomorpholinyl)-1-azetidinyl)methyl)-7′-methoxy-11′,12′-dimethyl-3,4-dihydro-2H,15′H-spiro[naphthalene-1,22′-[20]oxa[13]thia[1,14]diazatetracyclo [14.7.2.0~3,6~.0~19,24~]pentacosa[8,16,18,24]tetraen]-15′-one 13′,13′-dioxide]	–	–	0.084	IC50 [2, 8]: 453 nM
(1S,3′R,6′R,7′R,8′E,11′S,12′R)-6-chloro-12′-(2-(dimethylamino)ethyl)-7′-methoxy-11′-methyl-7′-((9aR)-octahydro-2H-pyrido[1,2-a]pyrazin-2-ylmethyl)-3,4-dihydro-2H,15′H-spiro[naphthalene-1,22′-[20]oxa[13]thia[1,14]diazatetracyclo[14.7.2.0-3,6˜.0˜19,24˜]pentacosa[8,16,18,24]tetraen]-15′-one 13′,13′-dioxide [Example 367]	–	–	0.201	IC50 [2, 6]: 273 nM
COC(=O)[C@@H](C)NC(=O)C[C@]1(OC)/C=C/C[C@H](C)[C@@H](C)S(=O)(=O)NC(=O)c2ccc3c(c2)N(C[C@@H]2CC[C@H]21)C[C@@]1(CCCc2cc(Cl)ccc21)CO3 [Example 100528, methyl N-(((1S,3′R,6′R,7′S,8′E,11′S,12′R)-6-chloro-7′-methoxy-11′,12′-dimethyl-13′,13′-dioxido-15′-oxo-3,4-dihydro-2H-spiro[naphthalene-1,22′-[20]oxa[13]thia[1,14]diazatetracyclo [14.7.2.0~3,6~.0~19,24~]pentacosa[8,16,18,24]tetraen]-7′-yl)acetyl)-D-alaninate]	0.138	257	–	–
CO[C@]1(CN2CC3(C2)CS(=O)(=O)C3)/C=C/C[C@H](C)[C@@H](C)S(=O)(=O)NC(=O)c2ccc3c(c2)N(C[C@@H]2CC[C@H]21)C[C@@]1(CCCc2cc(Cl)ccc21)CO3 [Example 224, (1S,3′R,6′R,7′R,8′E,11′S,12′R)-6-chloro-7′-((2,2-dioxido-2-thia-6-azaspiro[3.3]hept-6-yl)methyl)-7′-methoxy-11′,12′-dimethyl-3,4-dihydro-2H,15′H-spiro[naphthalene-1,22′-[20]oxa[13]thia[1,14]diazatetracyclo [14.7.2.0~3,6~.0~19,24~]pentacosa[8,16,18,24]tetraen]-15′-one 13′,13′-dioxide]	–	–	0.127	IC50 [2, 8]: 157 nM
